Data taken from ChEMBL document CHEMBL3044684, “Synthesis and cytotoxic activity of novel benzopyrano[3,2-c]chromene-6,8-dione derivatives” (Med Chem Res, 2011).

Tests used:
Type in all cases: functional, cell-based
HeLa = experiment: Cytotoxicity against Homo sapiens (human) HeLa cells after 96 hr by MTT assay
[1] = Cytotoxicity against Homo sapiens (human) LS180 cells after 96 hr by MTT assay; conditions: LS180, 96 h
MCF7 = experiment: Cytotoxicity against Homo sapiens (human) MCF7 cells after 96 hr by MTT assay; conditions: MCF7, 96 h
Raji = experiment: Cytotoxicity against Homo sapiens (human) Raji cells after 96 hr by MTT assay

Compound | IC16 (HeLa) | IC50 (HeLa) | IC16 [1] | IC50 [1] | IC16 (MCF7) | IC50 (MCF7) | IC16 (Raji) | IC50 (Raji)
O=C1CCCC2=C1C(c1cccc(Br)c1)c1c(c3ccccc3oc1=O)O2 (stereo not drawn) | 21.9 µM | 61.6 µM | 35.1 µM | 83.8 µM | > 50 µM | > 50 µM | 11.3 µM | 49.3 µM
O=C1CCCC2=C1C(c1ccc([N+](=O)[O-])cc1)c1c(c3ccccc3oc1=O)O2 (stereo not drawn) | > 100 µM | > 100 µM | 32.6 µM | 75.7 µM | 26 µM | 61.7 µM | 47.7 µM | > 100 µM
COc1cccc2c1C(=O)c1c(O)c3c(c(O)c1C2=O)C[C@@](O)(C(=O)CO)C[C@@H]3O[C@H]1C[C@H](N)[C@H](O)[C@H](C)O1 [DOXORUBICIN] | 0.015 µM | 0.053 µM | 0.03 µM | 0.13 µM | 0.051 µM | 0.211 µM | 0.012 µM | 0.039 µM
COc1ccccc1C1C2=C(CCCC2=O)Oc2c1c(=O)oc1ccccc21 (stereo not drawn) | 37.6 µM | 74.3 µM | 52.1 µM | > 100 µM | > 100 µM | > 100 µM | 30.3 µM | > 100 µM
Cc1ccccc1C1C2=C(CCCC2=O)Oc2c1c(=O)oc1ccccc21 (stereo not drawn) | 42.9 µM | > 100 µM | 53.8 µM | > 100 µM | 30.9 µM | > 100 µM | 26.4 µM | 79.7 µM
O=C1CCCC2=C1C(c1ccccc1Br)c1c(c3ccccc3oc1=O)O2 (stereo not drawn) | > 100 µM | > 100 µM | > 100 µM | > 100 µM | > 100 µM | > 100 µM | > 100 µM | > 100 µM
O=C1CCCC2=C1C(c1ccccc1Cl)c1c(c3ccccc3oc1=O)O2 (stereo not drawn) | > 25 µM | > 25 µM | > 25 µM | > 25 µM | > 25 µM | > 25 µM | > 25 µM | > 25 µM
Cc1ccc(C2C3=C(CCCC3=O)Oc3c2c(=O)oc2ccccc32)cc1 (stereo not drawn) | 38.8 µM | > 100 µM | 74.2 µM | > 100 µM | 49.2 µM | > 100 µM | 8.5 µM | 78.9 µM
O=C1CCCC2=C1C(c1ccc(Cl)cc1)c1c(c3ccccc3oc1=O)O2 (stereo not drawn) | 17.9 µM | 55.8 µM | > 100 µM | > 100 µM | 54.7 µM | > 100 µM | 59 µM | > 100 µM
COc1ccc(C2C3=C(CCCC3=O)Oc3c2c(=O)oc2ccccc32)cc1 (stereo not drawn) | 48.7 µM | 97.9 µM | 100 µM | > 100 µM | 35.9 µM | 76.3 µM | 33.1 µM | > 100 µM
O=C1CCCC2=C1C(c1ccc(Br)cc1)c1c(c3ccccc3oc1=O)O2 (stereo not drawn) | > 100 µM | > 100 µM | > 100 µM | > 100 µM | 15.7 µM | 49.3 µM | 22.4 µM | 82.4 µM
O=C1CCCC2=C1C(c1ccccc1[N+](=O)[O-])c1c(c3ccccc3oc1=O)O2 (stereo not drawn) | 18.1 µM | > 100 µM | > 100 µM | > 100 µM | 28 µM | 59.5 µM | 14.9 µM | 54.8 µM
O=C1CCCC2=C1C(c1cccc([N+](=O)[O-])c1)c1c(c3ccccc3oc1=O)O2 (stereo not drawn) | 26.2 µM | 63.1 µM | 60.9 µM | > 100 µM | 23.1 µM | 80.3 µM | 55.8 µM | > 100 µM
Cc1cccc(C2C3=C(CCCC3=O)Oc3c2c(=O)oc2ccccc32)c1 (stereo not drawn) | 41.7 µM | > 100 µM | 47 µM | > 100 µM | 42.8 µM | > 100 µM | 26.7 µM | 72.7 µM
COc1cccc(C2C3=C(CCCC3=O)Oc3c2c(=O)oc2ccccc32)c1 (stereo not drawn) | 25.3 µM | 89.9 µM | 48.9 µM | 99.7 µM | 22.2 µM | 58.6 µM | 13.1 µM | 49.2 µM
O=C1CCCC2=C1C(c1cccc(Cl)c1)c1c(c3ccccc3oc1=O)O2 (stereo not drawn) | > 50 µM | > 50 µM | > 50 µM | > 50 µM | > 50 µM | > 50 µM | 23.9 µM | > 50 µM
